In US20150017380A1, “ABSORBENT FOOD PAD HAVING DISCRETE AIRFLOW PASSAGES” (Paper-Pak Industries, priority 2013, published 2015):

Test: SO2 generation of Na2S2O5 in an open environment
Format: physicochemical
Protocol: FIG. 6A and FIG. 6B show the results of a test that was performed to establish how Na2S2O5 reacts with the environment, and the effect of changes in relative humidity. 0.1 g of Na2S2O5 on sampling “boats” were placed on top of a counter; i.e., in an “open” environment. The concentration of SO2 gas (in parts per million, ppm) in the air at about 2.5 cm (about 1″) above the Na2S2O5 was measured daily for more than 50 days of testing. The relative humidity was also measured for each day of testing.

average SO2 concentration generated (0.1 grams of Na2S2O5, open environment, air about 2.5 cm above the sample, up to 50 days): 0.5 ppm
duration of continuous SO2 generation (conclusion from the several tests): more than 50 days
SMILES: O=S([O-])S(=O)(=O)[O-].[Na+].[Na+] [Na2S2O5, sodium metabisulfite]
